Here are results for 23 compounds from PubChem BioAssay AID330 (DTP/NCI, 2004).

For this test, the system named is P388 leukemia ip, CD2F1 mice, survival T/C. The test can be described thus: NCI In Vivo Anticancer Drug Screen. Data for tumor model P388 Leukemia (intraperitoneal) in CD2F1 (CDF1) mice. The following applies: endpoint: median survival time, higher = longer survival. The protocol:
The antitumor activity of compounds was measured in mice bearing transplantable tumors. Survival or tumor size were measured and the results are expressed as the measurement made in the treated group (T) divided by the measurement made in the vehicle treated control group (C). The tumor model used in this assay is P388 Leukemia (intraperitoneal) in CD2F1 (CDF1) mice

Setting [1] is: dose: 50.0 mg/kg/injection, schedule: Q01DX009 (ip), vehicle: saline with Tween-80.
The mark [2] stands for this setting: dose: 100.0 mg/kg/injection, schedule: Q01DX009 (ip), vehicle: saline with Tween-80.
[3] abbreviates: dose: 200.0 mg/kg/injection, schedule: Q01DX009 (ip), vehicle: saline with Tween-80.
The mark [4] stands for this setting: dose: 50.0 mg/kg/injection, schedule: Q01DX009 (ip), vehicle: Klucel (hydroxypropylcellulose) (HPC).
Setting [5] is: dose: 100.0 mg/kg/injection, schedule: Q01DX009 (ip), vehicle: Klucel (hydroxypropylcellulose) (HPC).
Setting [6] is: dose: 200.0 mg/kg/injection, schedule: Q01DX009 (ip), vehicle: Klucel (hydroxypropylcellulose) (HPC).
The mark [7] stands for this setting: dose: 12.5 mg/kg/injection, schedule: Q01DX009 (ip), vehicle: saline.
[8] abbreviates: dose: 25.0 mg/kg/injection, schedule: Q01DX009 (ip), vehicle: saline.
Setting [9] is: dose: 50.0 mg/kg/injection, schedule: Q01DX009 (ip), vehicle: saline.
[10] abbreviates: dose: 25.0 mg/kg/injection, schedule: Q01DX009 (ip), vehicle: saline with Tween-80.

The structures appear in SMILES notation. Several values for one entry are separate records, joined by “and”; a condition that tells them apart may be missing. Equal values may be shown once. Toxic doses and inconclusive results are not listed.

Regarding `C=C1C(=O)OC2CC1C(O)C/C(C)=C/CC/C(C)=C/CCC2(C)O` (configuration not stated), the T/C (dose: 2.0 mg/kg/injection, schedule: Q01DX009 (ip), vehicle: Klucel (hydroxypropylcellulose) (HPC)) was 110 % of control; the T/C (dose: 4.0 mg/kg/injection, schedule: Q01DX009 (ip), vehicle: Klucel (hydroxypropylcellulose) (HPC)) was 110 % of control; the T/C (dose: 8.0 mg/kg/injection, schedule: Q01DX009 (ip), vehicle: Klucel (hydroxypropylcellulose) (HPC)) is 122 % of control and 92 % of control; the T/C (dose: 16.0 mg/kg/injection, schedule: Q01DX009 (ip), vehicle: Klucel (hydroxypropylcellulose) (HPC)) was 105 % of control and 114 % of control; the T/C (dose: 32.0 mg/kg/injection, schedule: Q01DX009 (ip), vehicle: Klucel (hydroxypropylcellulose) (HPC)) was 106 % of control and 107 % of control.

Take `CCCCCCCCCCCCOC(=O)c1ccc(Cl)cc1`: the T/C by setting is: under setting [1], 87 % of control; under setting [2], 102 % of control; under setting [3], 104 % of control.

As to `NS(=O)(=O)c1cccc(NC(=O)c2ccco2)c1`, the T/C is, setting by setting: under setting [4], 102 % of control; under setting [5], 101 % of control; under setting [6], 94 % of control.

Regarding `CN1CC2Cc3ccc(O)cc3C(C)(C2)C1` (configuration not stated), the T/C reads like this: under setting [7], 98 % of control; under setting [8], 96 % of control; under setting [1], 87 % of control; under setting [9], 98 % of control.

For the compound `C(=C\c1cccnc1)/c1ccncc1`, the T/C under setting [10] is 95 % of control, the T/C under setting [1] is 104 % of control and the T/C under setting [2] was 109 % of control.

For the compound `CCOC(CCC(CO)CO)OCC`, the T/C is, setting by setting: (dose: 50.0 mg/kg/injection, schedule: Q01DX009 (ip), vehicle: suspension in saline) 108 % of control; (dose: 100.0 mg/kg/injection, schedule: Q01DX009 (ip), vehicle: suspension in saline) 112 % of control; (dose: 200.0 mg/kg/injection, schedule: Q01DX009 (ip), vehicle: suspension in saline) 96 % of control.

Consider `CC1(O)c2ccccc2-c2ccccc2C1(C)O` (configuration not stated), for which the T/C was 97 % of control (dose: 50.0 mg/kg/injection, schedule: Q01DX005 (ip), vehicle: saline with Tween-80); 100 % of control (dose: 100.0 mg/kg/injection, schedule: Q01DX005 (ip), vehicle: saline with Tween-80); 90 % of control (dose: 200.0 mg/kg/injection, schedule: Q01DX005 (ip), vehicle: saline with Tween-80).

Turning to `COc1cc([C@@H]2c3cc4c(cc3[C@H](OC(=O)CCC(=O)O)[C@H]3COC(=O)[C@H]23)OCO4)cc(OC)c1OC`, the T/C is 106 % of control (dose: 6.25 mg/kg/injection, schedule: Q01DX005 (ip), vehicle: saline with Tween-80); 122 % of control (dose: 12.5 mg/kg/injection, schedule: Q01DX005 (ip), vehicle: saline with Tween-80); 113 % of control (dose: 25.0 mg/kg/injection, schedule: Q01DX005 (ip), vehicle: saline with Tween-80).

Take `CC[N+](C)(CC)CCl`: the T/C was 104 % of control (dose: 7.5 mg/kg/injection, schedule: Q01DX005 (ip), vehicle: saline) and 99 % of control (dose: 15.0 mg/kg/injection, schedule: Q01DX005 (ip), vehicle: saline).

In the case of `O=C1CSC(=Nc2ccccc2)N1c1ncccn1`, the T/C is 103 % of control under setting [4], 102 % of control under setting [5] and 102 % of control under setting [6].

Regarding `CCC[CH2][Sn](=[O])[c]1ccccc1`, the T/C (dose: 12.5 mg/kg/injection, schedule: Q04DX002 (ip), vehicle: saline with Tween-80) is 100 % of control and 119 % of control; the T/C (dose: 25.0 mg/kg/injection, schedule: Q04DX002 (ip), vehicle: saline with Tween-80) was 103 % of control and 106 % of control; the T/C (dose: 50.0 mg/kg/injection, schedule: Q04DX002 (ip), vehicle: saline with Tween-80) is 103 % of control and 109 % of control; the T/C (dose: 100.0 mg/kg/injection, schedule: Q04DX002 (ip), vehicle: saline with Tween-80) is 103 % of control and 116 % of control.

Take `O=C(NNCNNC(=O)c1ccncc1)c1ccncc1`: the T/C was 100 % of control (dose: 50.0 mg/kg/injection, schedule: Q01DX005 (ip), vehicle: Klucel (hydroxypropylcellulose) (HPC)); 100 % of control (dose: 100.0 mg/kg/injection, schedule: Q01DX005 (ip), vehicle: Klucel (hydroxypropylcellulose) (HPC)); 96 % of control (dose: 200.0 mg/kg/injection, schedule: Q01DX005 (ip), vehicle: Klucel (hydroxypropylcellulose) (HPC)).

On to `Cc1ccc2c(c1)N=C(OCCCN(C)C)/C(=C/c1ccccc1)O2`, for which the T/C runs as follows: (dose: 50.0 mg/kg/injection, schedule: Q04DX002 (ip), vehicle: Klucel (hydroxypropylcellulose) (HPC)) 105 % of control; (dose: 100.0 mg/kg/injection, schedule: Q04DX002 (ip), vehicle: Klucel (hydroxypropylcellulose) (HPC)) 99 % of control; (dose: 200.0 mg/kg/injection, schedule: Q04DX002 (ip), vehicle: Klucel (hydroxypropylcellulose) (HPC)) 101 % of control.

With `CCOC(=O)c1ccc(N2C(=O)C=CC2=O)cc1`, the T/C is, setting by setting: (dose: 3.12 mg/kg/injection, schedule: Q01DX009 (ip), vehicle: saline) 98 % of control; (dose: 6.25 mg/kg/injection, schedule: Q01DX009 (ip), vehicle: saline) 98 % of control; under setting [7], 96 % of control.

With `CNc1nc(NC)nc(NC)n1`, the T/C runs as follows: under setting [7], 95 % of control; under setting [8], 104 % of control; under setting [9], 95 % of control; (dose: 100.0 mg/kg/injection, schedule: Q01DX009 (ip), vehicle: saline) 93 % of control.

Take `O=C(CCl)N1CC2CCC(CC2)C1`: the T/C is, setting by setting: under setting [1], 102 % of control; under setting [2], 91 % of control.

Regarding `C=CCc1ccccc1C`, the T/C is, setting by setting: under setting [2], 109 % of control; under setting [3], 101 % of control.

Turning to `Cc1ccc(NS(=O)(=O)c2ccccc2)nc1`, the T/C is 110 % of control under setting [10]; 100 % of control under setting [1]; 100 % of control under setting [2]; 95 % of control under setting [3]; 105 % of control (dose: 400.0 mg/kg/injection, schedule: Q01DX009 (ip), vehicle: saline with Tween-80).

As to `COCCCNC(=S)N/N=C/c1cccc(OC)c1O`, the T/C by setting is: under setting [1], 101 % of control; under setting [2], 111 % of control; under setting [3], 88 % of control.

For the compound `O=c1ccc2ccc(OC3OC(CO)C(O)C(O)C3O)cc2o1` (configuration not stated), the T/C was 106 % of control (dose: 1.0 mg/kg/injection, schedule: Q01DX009 (ip), vehicle: saline with Tween-80); 100 % of control (dose: 2.0 mg/kg/injection, schedule: Q01DX009 (ip), vehicle: saline with Tween-80); 104 % of control (dose: 4.0 mg/kg/injection, schedule: Q01DX009 (ip), vehicle: saline with Tween-80).

On to `CC(=O)OCC1OC(OC2CC(=O)C[C@H]3C(=O)N(c4ccccc4)C(=O)[C@@H]23)C(OC(C)=O)C(OC(C)=O)C1OC(C)=O` (some centres not stated), for which the T/C runs as follows: (dose: 60.0 mg/kg/injection, schedule: Q01DX005 (ip), vehicle: saline with Tween-80) 102 % of control; (dose: 120.0 mg/kg/injection, schedule: Q01DX005 (ip), vehicle: saline with Tween-80) 103 % of control; (dose: 240.0 mg/kg/injection, schedule: Q01DX005 (ip), vehicle: saline with Tween-80) 92 % of control.

On to `CC(C)=CC(=O)OC1C2C(C)=CC(O)C(O)C2(C)C2C3(O)OCC24C(CC(=O)OC14)C(C)C3O` (configuration not stated), for which the T/C was 123 % of control (dose: 0.31 mg/kg/injection, schedule: Q01DX005 (ip), vehicle: distilled water + Tween-80); 160 % of control (dose: 0.75 mg/kg/injection, schedule: Q01DX009 (ip), vehicle: saline with Tween-80); 154 % of control (dose: 1.0 mg/kg/injection, schedule: Q01DX005 (ip), vehicle: distilled water + Tween-80); 154 % of control (dose: 2.0 mg/kg/injection, schedule: Q01DX005 (ip), vehicle: distilled water + Tween-80); 163 % of control (dose: 4.0 mg/kg/injection, schedule: Q01DX005 (ip), vehicle: distilled water + Tween-80); 153 % of control (dose: 5.0 mg/kg/injection, schedule: Q01DX005 (ip), vehicle: distilled water + Tween-80). In addition, the T/C (dose: 6.0 mg/kg/injection, schedule: Q01DX009 (ip), vehicle: saline with Tween-80) is 109 % of control.

Regarding `O=C(NCCCCOc1ccc([N+](=O)[O-])cc1Cl)NC1CCCCC1`, the T/C was 90 % of control (dose: 50.0 mg/kg/injection, schedule: Q01DX001 (ip), vehicle: saline with Tween-80); 100 % of control (dose: 100.0 mg/kg/injection, schedule: Q01DX001 (ip), vehicle: saline with Tween-80); 100 % of control (dose: 200.0 mg/kg/injection, schedule: Q01DX001 (ip), vehicle: saline with Tween-80).
